Reference: patent publication US20250270217A1, “IMIDAZ0[1,2-A]PYRIMIDINE-5(1 H)-ONES HAVING A COVALENT WARHEAD AT THE 3-POSITION AS WRN INHIBITORS” (Incyte Corporation, priority 2023, published 2025)

Tests used:
[1] = test system: WRN (aa S2-S1235) variants; experiment: ATPase activity of WRN mutants (ADP-Glo, DNA stimulated ATPase activity); assay type: biochemical; details: for Ratio to WT: Table 10, ATPase activity; for Observed Helicase Activity (AU/min): Table 10, ATPase activity of WRN mutants
Method: (§1) Point mutations were made in the His-tagged WRN construct used for biochemical characterization (aa S2-S1235). Cysteine 580 (Walker A motif), 727 (linker), 864 (Domain 2A) and 1041 (RQC domain) were each mutated to both Serine and Alanine using site directed mutagenesis, for a total of eight mutants. Purified proteins were assayed in both helicase and ATPase assays. Cys580 mutation to either Ser or Ala abolished all activity, consistent with Walker A motif cysteine function. Cys864 (D2) mutation to alanine and Cys1041 (RQC domain) had no significant impact on helicase or ATPase activity. Cys727 abolished helicase activity (Table 9), whether it was mutated to Ala or Ser. ATPase activity for Cys727 mutants was reduced but not abolished (Table 10). Table 9 is the panel of the nine variant WRN helicase proteins that were screen using a flourscence-based DNA unwinding assay with an increase in flourscence intensity indicating DNA unwinding. Table 10 is the panel of the nine variant WRN helicase proteins that were screened using ADP-Glo assay to measure DNA stimulated ATPase activity, with an increase in luminescence indicating ATP hydrolysis.

[2] = test system: WRN (aa S2-S1235) variants; experiment: Helicase activity of WRN mutants (fluorescence-based DNA unwinding assay); assay type: biochemical; details: for Ratio to WT: Table 9, helicase activity; for Observed Helicase Activity (AU/min): Table 9, helicase activity of WRN mutants
Method: as §1

Ratio to WT [1] | Ratio to WT [2] | Substance | Observed Helicase Activity (AU/min) [1] [AU/min] | Observed Helicase Activity (AU/min) [2] [AU/min]
0.01 | 0.00 | 2. C580S: His-tagged WRN construct (aa S2-S1235), Cysteine 580 (Walker A motif) mutated to Serine | 0.8014 | 0
0.29 | 0.07 | 3. C727A: His-tagged WRN construct (aa S2-S1235), Cysteine 727 (linker) mutated to Alanine | 22.65 | 4.619

More lines, now with the values behind:

Substance | Ratio to WT [1] | Ratio to WT [2] | Observed Helicase Activity (AU/min) [1] [AU/min] | Observed Helicase Activity (AU/min) [2] [AU/min]
1. C580A: His-tagged WRN construct (aa S2-S1235), Cysteine 580 (Walker A motif) mutated to Alanine | 0.03 | 0.02 | 2.548 | 1.04
5. C864A: His-tagged WRN construct (aa S2-S1235), Cysteine 864 (Domain 2A) mutated to Alanine | 0.90 | 0.94 | 70.52 | 60.75
6. C864S: His-tagged WRN construct (aa S2-S1235), Cysteine 864 (Domain 2A) mutated to Serine | 0.54 | 0.44 | 42.02 | 28.49
7. C1041A: His-tagged WRN construct (aa S2-S1235), Cysteine 1041 (RQC domain) mutated to Alanine | 0.85 | 0.93 | 66.66 | 60.14
8. C1041S: His-tagged WRN construct (aa S2-S1235), Cysteine 1041 (RQC domain) mutated to Serine | 0.59 | 0.62 | 45.74 | 40.28
